Test results from US20070078085A1, “Methods and compositions for the utilization and targeting of osteomimicry” (priority 2004, published 2007).

Tests used:
Assay type in all cases: cell-based, human
hOC promoter = experiment: hOC promoter-luciferase reporter activity in transfected cells; conditions: C4-2B cells
Excerpt: Plasmid Construction. Genomic DNA was used in the PCR of the 0.8-kb hOC promoter inserting KpnI and XhoI sites, subsequently cloned into pGL3-Basic-luciferase reporter vector (Promega, Madison, Wis.) as described before (9). The deletion constructs, ΔA [374 bp upstream of AP1/VDRE (AV) element], ΔTst-1 (POU-factor Tst-1/Oct-6 binding site), ΔCRE (cAMP-responsive element) and ΔIRF-1 (interferon regulatory factor-i binding site) in hOC promoter/pGL3 were generated by recombinant PCR technique. The point mutation plasmids in CRE (from -643 to -636 in hOC promoter, 5′-[…]-3′) were constructed with a QuikChange Site-Directed Mutagenesis Kit (Stratagene). The mutation constructs (see below) are one-point substitution mutants, Mut1 (-642 G→T), Mut2 (-641 A→C), Mut3 (-640 C→A), Mut4 (-639 C→A) and Mut5 (-638 T→G), a two-point substitution mutant, Mut6 (-640 and -639 CC→AA), and a two-point deletion construct, Mut7 (-640 and -639 CC→XX). The 1.5-kb hBSP promoter construct prepared in the pGL3-luciferase reporter vector has been described previously (36). The single deletion constructs ΔCRE1 (-79 to -72) and ΔCRE2 (-674 to -667), and a double deletion construct ΔCRE2/CRE1 in the hBSP promoter/pGL3-luciferase plasmid were generated by recombinant PCR technique. All plasmid constructs were confirmed by DNA sequencing.
Transfection and Luciferase Activity Assay. Cells were trypsinized and seeded at a density of 1.5×10^5 cells/well (LNCaP, C4-2B, DU145 and ARCaP) and 1.0×10^5 cells/well (PC3 and MG63) in 12-well plates 24 h before transfection. Plasmid DNAs were introduced into cells by complexing with a commercial reagent DOTAP (Roche Molecular Biochemicals) according to the manufacturer's protocol. Each transfection reaction contained 1.25 μg of tested DNA constructs and 0.25 μg of the transfection efficiency control CMV promoter-driven β-galactosidase plasmid DNA. After 6 h transfection, DNA-liposome mixtures were replaced by fresh T-medium or CM. Tansfected cells were harvested and lysed in 1× Reporter Lysis buffer (Promega) after 36 h additional incubation. Cell lysates were vortexed for 15 s and spun for 10 min. For luciferase activity assay, 20 μl of the lysate supernatant was mixed with 100 μl of the luciferase substrate (Promega) and detected by a luminometer (Monolight 3010, luminometer PharMingen, San Diego, Calif.). For β-galactosidase activity assay, 100 μl of the supernatant was mixed with 100 μl of 2×β-galactosidase substrate [200 mM sodium phosphate buffer, pH 7.3, 2 mM MgCl2, 100 mM β-mercaptoethanol and 1.33 mg/ml o-nitrophenyl-β-D-galactopyranoside (ONPG)], and incubated at 37° C. for 30 min. β-galactosidase activity was detected by Microplate spectrophotometer (Molecular Devices Corp., Sunnyvale, Calif.) at 405 nm wavelength. Data were presented as normalized luciferase activity (means±standard deviations), defined as luciferase activity normalized to internal control β-galactosidase activity for transfection efficiency. All studies were performed in three independent experiments with duplicate assays.

OC mRNA = experiment: Semi-quantitative RT-PCR of endogenous OC mRNA; conditions: LNCaP and C4-2B cells (data not shown)
Experimental: (§1) Reverse Transcription-Polymerase Chain Reaction (RT-PCR) Analysis. Total RNA was isolated from confluent monolayers of cells using RNAZol B (Teltest Inc., Friendswood, Tex.). Five μg of total RNA was used as template and 0.15 μg of random hexanucleotide primers were added for reverse transcription and amplification in a reaction volume of 20 μl, according to the manufacturer's instruction (Invitrogen, Carlsbad, Calif.). After RT reaction, 3-5 μl of the 1st-strand cDNA was used for PCR with a PTC-100 programmable Thermal Controller (MJ Research Inc.). The oligonucleotide primer sets used for PCR analysis of cDNA are: hOC, 5′-[…]-3′ (forward) and 5′-[…]-3′ (reverse); hBSP, 5′-[…]-3′ (forward) and 5′-[…]-3′ (reverse); and glyceraldehyde phosphate dehydrogenase (GAPDH), 5′-[…]-3′ (forward) and 5′-[…]-3′ (reverse), respectively. The thermal profile for hOC amplification is 30 cycles starting with denaturation 1 min at 94° C., followed by 1 min of annealing at 55° C. and 1 min of extension at 72° C. For hBSP amplification the thermal profile is 35 cycles starting with denaturation 1 min at 94° C., followed by 30 s of annealing at 48° C. and 40 s of extension at 72° C. The program for GAPDH amplification is 25 cycles starting with denaturation 30 s at 94° C., followed by 30 s of annealing at 60° C. and 1 min of extension at 72° C. The RT-PCR products were analyzed by 1.2% agarose gel electrophoresis. Quantity one-4.1.1 Gel Doc gel documentation software (Bio-Rad) or NIH image were used for quantification of hOC and hBSP mRNA expression normalized by GAPDH mRNA expression.

BSP mRNA = experiment: Semi-quantitative RT-PCR of endogenous BSP mRNA; conditions: LNCaP and C4-2B cells (data not shown)
Experimental: as §1

Structure (SMILES): O=S(=O)(NCCNCC=Cc1ccc(Br)cc1)c1cccc2cnccc12 [H-89, N-[2-(p-bromocinnamylamino)ethyl]-5-isoquinolinesulfonamide]
- ARCaP CM-mediated activation of hOC promoter activity (hOC promoter; H-89 10^−6 M 2 h, then ARCaP CM 15 μg/ml 16 h): inhibited
- PMA-induced hOC promoter activation (hOC promoter; H-89 10^−6 M 2 h, then PMA 10^−6 M 16 h): not blocked
- db cAMP-mediated activation of hOC promoter activity (hOC promoter; H-89 10^−6 M 2 h, then db cAMP 10^−3 M 16 h): inhibited
- CM-induced hOC promoter activity (hOC promoter; H-89 10^−6 M, CM harvested from C4-2B, DU145, PC3 and MG63 cell lines): nearly abolished
- FSK-stimulated hOC promoter activity (hOC promoter; H-89 10^−8 to 10^−6 M for 2 h, then FSK 10^−6 M 16 h, concentration-dependent): inhibited
- induction of endogenous OC mRNA expression by ARCaP CM or FSK (OC mRNA): inhibited
- induction of endogenous BSP mRNA expression by ARCaP CM or FSK (BSP mRNA): inhibited
